For data set [1] the following is noted: HIV-infected patients, 300 mg/day (Hafner et al, 1998); cited from earlier work.
Data set [2] in a line: Preliminary assessment of solubility in solvents (24 h). As to conditions: thermodynamic from solid, 24 h stirring at room temperature, read-out: Solubility (mg/ml) at 24 h. The format is physicochemical. As for the experimental part: After 24 h stirring at room temperature, samples were centrifuged, and the supernatant analyzed by HPLC.
Data set [3] can be described thus: Dissolution of rifabutin in DMI or DMI/water with acid and dilution with aqueous solutions. The following applies: in DMI without water or acid; longer than plausibly acceptable. Type of data set: physicochemical.
For data set [4] the following is noted: in Ethanol (literature data); cited from earlier work.
The conditions of data set [5]: human, in vivo, cited from earlier work.

In brackets after ≈: the same amount, converted by molar mass. Read-outs that look alike come from different tables or passages of the source.

By AUC is commonly meant concentration integrated over time. As a reminder, the Cmax is the highest concentration seen after dosing.

`CO[C@H]1/C=C/O[C@@]2(C)Oc3c(C)c(O)c4c(c3C2=O)C2=NC3(CCN(CC(C)C)CC3)NC2=C(NC(=O)/C(C)=C\C=C\[C@H](C)[C@H](O)[C@@H](C)[C@@H](O)[C@@H](C)[C@H](OC(C)=O)[C@@H]1C)C4=O` [rifabutin]: the “AUC at steady state” value in data set [1] is 8600 ± 8200 ng·h/mL. The “Cmax at steady state” value in data set [1] was 590 ± 330 ng/mL. Further, the solubility at 24 h worked out at 11.3 mg/mL (≈ 13300 µM) in data set [2] (aqueous buffer, in Acetate buffer pH 4 (USP)); 1.9 mg/mL (≈ 2240 µM) in data set [2] (aqueous buffer, in Borate buffer pH 10 (USP)); 0.3 mg/mL (≈ 354 µM) in data set [2] (aqueous buffer, in Phosphate buffer pH 6 (USP)); 0.2 mg/mL (≈ 236 µM) in data set [2] (aqueous buffer, in Phosphate buffer pH 8 (USP)); 0.5 mg/mL (≈ 590 µM) in data set [2] (aqueous with cosolvent or surfactant or cyclodextrin, in Povidone K12 (5% w/w in water)); 1.3 mg/mL (≈ 1530 µM) in data set [2] (aqueous with cosolvent or surfactant or cyclodextrin, in Tween 80 (1% w/w in water)). Further, the solubility at 24 h in data set [2] (organic solvent or mixture, in Dimethyl isosorbide (DMI)) was ≥ 245 mg/mL; in data set [2] (organic solvent or mixture, in Dimethylacetamide (DMA)) it was ≥ 204 mg/mL; in data set [2] (organic solvent or mixture, in Glycerol) it was 0.4 mg/mL (≈ 472 µM); in data set [2] (organic solvent or mixture, in N-Methyl-2-pyrrolidone (NMP)) it was ≥ 190 mg/mL; in data set [2] (organic solvent or mixture, in Polyethylene glycol 400 (PEG400)), ≥ 110 mg/mL; in data set [2] (organic solvent or mixture, in Propylene glycol), ≥ 92 mg/mL. Further, the solubility at 24 h was ≥ 206 mg/mL in data set [2] (organic solvent or mixture, in Transcutol HP) and 0.3 mg/mL (≈ 354 µM) in data set [2] (saline or isotonic, in Saline 0.9%). Moreover, the “Dissolution of rifabutin in DMI, concentration” value in data set [3] is > 250 mg/mL. In data set [4], the “Solubility (mg/ml) at 24 h” value is 30 mg/mL (≈ 35400 µM). The “time at which Cmax is attained after oral administration” value in data set [5] (300 mg) is on record as “approximately 3 hours”. In addition, in data set [5] (po, 300 mg), the “mean Cmax” value was 375 ng/mL. In data set [5] (po, 600 mg), the Cmax was 400 to 700 ng/mL. Also, in data set [5], the oral dose absorbed entry was “at least 53%”.
